Experimental data taken from ChEMBL document CHEMBL4665909, “Carboxamides as Modulators of Sodium Channels” (ACS Med Chem Lett, 2020).

These compounds were tested against Sodium channel protein type 10 subunit alpha (Homo sapiens, UniProt Q9Y5Y9) (assay: Inhibition of human Nav1.8 expressed in HEK cells applied electrical stimulus 10 Hz for 10 seconds measuring relaxation to the resting state followed by post stimulation by E-VIPR Assay).
Format: cell-based

Chain of Sodium channel protein type 10 subunit alpha (Q9Y5Y9 whole entry): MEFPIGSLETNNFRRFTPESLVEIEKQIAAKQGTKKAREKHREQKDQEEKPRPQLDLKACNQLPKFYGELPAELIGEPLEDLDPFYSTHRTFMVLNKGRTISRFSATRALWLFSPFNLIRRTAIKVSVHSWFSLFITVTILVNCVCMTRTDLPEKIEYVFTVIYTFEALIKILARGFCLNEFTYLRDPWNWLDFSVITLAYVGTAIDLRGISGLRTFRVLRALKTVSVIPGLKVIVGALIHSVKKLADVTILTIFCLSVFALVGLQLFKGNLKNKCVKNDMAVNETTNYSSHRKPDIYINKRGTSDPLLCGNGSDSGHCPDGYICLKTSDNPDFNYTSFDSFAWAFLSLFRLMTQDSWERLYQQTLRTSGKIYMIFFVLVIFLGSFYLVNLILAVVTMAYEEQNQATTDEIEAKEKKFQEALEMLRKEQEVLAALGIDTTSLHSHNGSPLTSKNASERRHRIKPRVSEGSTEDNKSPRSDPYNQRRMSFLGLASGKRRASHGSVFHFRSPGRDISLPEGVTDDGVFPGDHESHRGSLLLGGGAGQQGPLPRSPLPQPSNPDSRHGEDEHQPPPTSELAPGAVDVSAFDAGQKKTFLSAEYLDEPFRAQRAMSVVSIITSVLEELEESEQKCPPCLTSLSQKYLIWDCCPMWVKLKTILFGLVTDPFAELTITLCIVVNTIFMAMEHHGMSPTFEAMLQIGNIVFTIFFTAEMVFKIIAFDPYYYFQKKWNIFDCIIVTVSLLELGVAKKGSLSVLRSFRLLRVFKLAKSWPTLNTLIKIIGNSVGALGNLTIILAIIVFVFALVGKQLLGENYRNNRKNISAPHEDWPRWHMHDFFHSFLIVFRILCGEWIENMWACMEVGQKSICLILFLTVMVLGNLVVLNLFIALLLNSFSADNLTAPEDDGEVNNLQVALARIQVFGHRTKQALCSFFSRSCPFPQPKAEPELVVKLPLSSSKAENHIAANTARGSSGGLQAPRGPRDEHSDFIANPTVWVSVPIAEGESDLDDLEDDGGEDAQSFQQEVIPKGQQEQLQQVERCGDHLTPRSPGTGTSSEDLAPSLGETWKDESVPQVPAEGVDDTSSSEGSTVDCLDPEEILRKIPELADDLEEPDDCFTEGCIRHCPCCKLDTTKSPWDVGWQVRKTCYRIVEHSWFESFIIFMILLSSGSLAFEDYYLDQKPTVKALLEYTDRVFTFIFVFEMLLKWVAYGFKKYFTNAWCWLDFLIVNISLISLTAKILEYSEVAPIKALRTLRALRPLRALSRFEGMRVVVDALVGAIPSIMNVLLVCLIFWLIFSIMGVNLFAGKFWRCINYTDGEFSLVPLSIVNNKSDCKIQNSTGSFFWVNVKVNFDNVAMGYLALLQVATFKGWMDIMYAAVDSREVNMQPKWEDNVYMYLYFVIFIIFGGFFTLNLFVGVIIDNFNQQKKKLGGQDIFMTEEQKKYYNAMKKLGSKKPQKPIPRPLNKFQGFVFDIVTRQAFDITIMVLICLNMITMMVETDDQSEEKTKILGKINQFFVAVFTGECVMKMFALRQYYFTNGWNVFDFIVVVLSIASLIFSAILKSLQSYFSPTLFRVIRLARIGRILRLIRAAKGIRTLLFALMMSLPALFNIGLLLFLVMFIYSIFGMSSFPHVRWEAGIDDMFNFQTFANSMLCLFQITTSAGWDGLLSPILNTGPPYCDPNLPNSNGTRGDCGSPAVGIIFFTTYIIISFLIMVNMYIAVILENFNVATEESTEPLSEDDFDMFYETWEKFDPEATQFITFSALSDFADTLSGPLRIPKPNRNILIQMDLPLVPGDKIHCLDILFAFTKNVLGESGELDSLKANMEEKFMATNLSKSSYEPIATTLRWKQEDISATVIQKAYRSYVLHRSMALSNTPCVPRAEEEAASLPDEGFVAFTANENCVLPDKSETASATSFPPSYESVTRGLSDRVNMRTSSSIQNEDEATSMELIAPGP

Compound	IC50 [nM]
COc1cc(OC(F)(F)F)ccc1Oc1cc(OC)c(C(F)(F)F)c(F)c1C(=O)Nc1ccnc(C(N)=O)c1	1.8
COc1cc(OC(F)(F)F)ccc1Oc1ccc(C(F)(F)F)c(Br)c1C(=O)Nc1ccnc(C(N)=O)c1	2
COc1c(Oc2ccc(C(F)(F)F)c(C)c2C(=O)Nc2ccnc(C(N)=O)c2)ccc(OC(F)(F)F)c1F	3
COc1c(Oc2ccc(Cl)c(F)c2C(=O)Nc2ccnc(C(N)=O)c2)ccc(OC(F)(F)F)c1F	2.3
COc1cc(OC(F)(F)F)ccc1Oc1ccc(C(F)(F)F)c(Cl)c1C(=O)Nc1ccnc(C(N)=O)c1	2
COc1cc(Oc2ccc(OC(F)(F)F)c(F)c2OC)c(C(=O)Nc2ccnc(C(N)=O)c2)c(F)c1Cl	1.7
COc1cc(OC(F)(F)F)ccc1Oc1ccc(C(F)(F)F)c(C)c1C(=O)Nc1ccnc(C(N)=O)c1	4

Stronger by IC50, values ahead:

IC50 [nM]	Compound
1.6	COc1c(Oc2cc(C(F)(F)F)c(OC)c(F)c2C(=O)Nc2ccnc(C(N)=O)c2)ccc(OC(F)(F)F)c1F
1.4	COc1c(Oc2cc(Cl)c(C)c(F)c2C(=O)Nc2ccnc(C(N)=O)c2)ccc(OC(F)(F)F)c1F
1.3	COc1c(Cl)cc(Oc2ccc(OC(F)(F)F)c(F)c2OC)c(C(=O)Nc2ccnc(C(N)=O)c2)c1F
0.8	COc1c(Oc2cc(C(F)(F)F)c(C)c(F)c2C(=O)Nc2ccnc(C(N)=O)c2)ccc(OC(F)(F)F)c1F
0.4	COc1cc(Oc2ccc(OC(F)(F)F)c(F)c2OC)c(C(=O)Nc2ccnc(C(N)=O)c2)c(F)c1C(F)(F)F
